Measured values reported in patent US12582643B2, “Tasquinimod or a pharmaceutically acceptable salt thereof for use in combination therapy” (ACTIVE BIOTECH AB, priority 2020, dated 2026).

How the values were obtained:
[1] = tested on: Human NCI-H929 (H929) multiple myeloma cells; test: H929 human xenograft model, tasquinimod with bortezomib or dexamethasone (Example 1); format: in vivo; settings: s.c. H929 in NSG mice; TQ 30 mg/kg drinking water; VEL 0.5 mg/kg i.v. every 4 days; compared to control mice; FIG. 1
Experimental: Human NCI-H929 (H929) multiple myeloma cells were inoculated subcutaneously in NSG mice. Tumour-bearing mice were treated with vehicle (VC), tasquinimod (TQ) 30 mg/kg ad lib in the drinking water starting when there were palpable tumors (i.e. day 18 after tumor inoculation); bortezomib (VEL), 0.5 mg/kg, i.v. every 4 days; dexamethasone (DEX), 10 mg/kg, i.p., 5 days on, 2 days off; or the combinations (TQ+DEX) and (TQ+VEL), and. Statistics: Two-way ANOVA; p-values VC vs TQ p=0.0009, VC vs VEL p=0.041, VC vs DEX p=0.0081, DEX vs DEX+TQ ns, TQ vs TQ+VEL p=0.0002, VEL vs VEL+TQ p=0.0361. The results are illustrated in FIG. 1.

[2] = tested on: MM1.S cells; test: Human MM1.S xenograft model of multiple myeloma, tasquinimod with lenalidomide (Example 2); format: in vivo; settings: s.c. MM1.S in NSG mice; TQ 30 mg/kg/day drinking water; LEN 5 mg/kg oral gavage; from day 14; compared to control mice; FIG. 2
Experimental: The effect of tasquinimod in combination with lenalidomide was studied in a human MM1.S model of multiple myeloma. The MM1.S cells were established from a patient with IgA myeloma with characteristics typical of human myeloma cells (Greenstein et al., Exp Hematol. 2003 April; 31(4):271-82). MM1.S model was established by subcutaneous inoculation of 5×10^6 MM1.S cells into NSG mice. Treatment with tasquinimod (TQ), 30 mg/kg/day in the drinking water; lenalidomide (LEN), 5 mg/kg via oral gavage, 5 consecutive days with 2 days breaks until the endpoint, or the combination of tasquinimod and lenalidomide (TQ+LEN), started when the tumors were measurable (day 14 after tumor cell injection). Tumor size was monitored using a caliper and tumor volume was calculated. Differences between groups were evaluated by using two-way ANOVA; p-values: TQ vs TQ+LEN p=0.0001, LEN vs LEN+TQ p=0.0183. The results are illustrated in FIG. 2.

COc1cccc2c1c(O)c(C(=O)N(C)c1ccc(C(F)(F)F)cc1)c(=O)n2C [tasquinimod, 4-hydroxy-5-methoxy-N,1-dimethyl-2-oxo-N-[4-(trifluoromethyl)phenyl]-1,2-dihydroquinoline-3-carboxamide]
multiple myeloma tumor growth (tumour area), result in words [1]: reduced the multiple myeloma tumor growth | multiple myeloma growth (tumour volume), result in words [2]: reduced the multiple myeloma growth

Nc1cccc2c1CN(C1CCC(=O)NC1=O)C2=O (stereo not shown) [lenalidomide, 3-(4-amino-1-oxoisoindolin-2-yl)piperidine-2,6-dione]
multiple myeloma growth (tumour volume), result in words [2]: reduced the multiple myeloma growth

CC(C)C[C@H](NC(=O)[C@H](Cc1ccccc1)NC(=O)c1cnccn1)B(O)O [bortezomib, [(1R)-3-methyl-1-[[(2S)-3-phenyl-2-(pyrazine-2-carbonylamino)propanoyl]amino]butyl]-boronic acid]
multiple myeloma tumor growth (tumour area), result in words [1]: reduced the multiple myeloma tumor growth
